# Earlier results, collected in patent US20160101114A1, “ARTICLES AND METHODS FOR PREVENTING AND TREATING DERMATOLOGIC ADVERSE EVENTS” (SLOAN-KETTERING INSTITUTE FOR CANCER RESEARCH, priority 2013, published 2016).
# Conditions: cancer therapies with multikinase inhibitors
row,Compound,all grade incidence of hand foot syndrome [%]
1,CNC(=O)c1ccccc1Sc1ccc2c(/C=C/c3ccccn3)n[nH]c2c1 [axitinib],29
2,COc1cc2nccc(Oc3ccc(NC(=O)C4(C(=O)Nc5ccc(F)cc5)CC4)cc3)c2cc1OC [cabozantinib],50
3,Cc1ccc(Nc2nccc(N(C)c3ccc4c(C)n(C)nc4c3)n2)cc1S(N)(=O)=O [pazopanib],5
4,CNC(=O)c1cc(Oc2ccc(NC(=O)Nc3ccc(Cl)c(C(F)(F)F)c3)c(F)c2)ccn1 [regorafenib],46
5,CNC(=O)c1cc(Oc2ccc(NC(=O)Nc3ccc(Cl)c(C(F)(F)F)c3)cc2)ccn1 [sorafenib],60
6,CCN(CC)CCNC(=O)c1c(C)[nH]c(/C=C2\C(=O)Nc3ccc(F)cc32)c1C [sunitinib],30
7,COc1cc2c(Nc3ccc(Br)cc3F)ncnc2cc1OCC1CCN(C)CC1 [vandetanib],5
8,ziv-aflibercept,2
